One may read the EC50 as the concentration at which the effect is half-maximal.

Molecules are shown by their SMILES. Structures can show the parent of a compound that is named as a salt.

Drawing on patent publication US9353081B2, “Bicyclic dihydroquinoline-2-one derivatives” (Hoffmann-La Roche Inc., priority 2011, dated 2016), this text covers EC50 for 22 compounds.

For one assay, the target named is human CYP11B2 (Homo sapiens (Human), UniProt P19099). Nature of the assay: G-402 cellular enzyme assay, human CYP11B2 (aldosterone release, HTRF). Type of assay: cell-based. The note with it: G-402 cells expressing human CYP11B2; 1 μM Deoxycorticosterone. The source says:
(§1) Specifically we developed stable G-402 cells expressing ectopically human CYP11B1, human CYP11B2, human CYP11A1, cynomolgus CYP11B1 or cynomolgus CYP11B2 enzyme activity.
(§2) The expression plasmids contains the ORF for either human/cyno CYP11B1 or CYP11B2 under the control of a suitable promoter (CMV-promoter) and a suitable resistance marker (neomycin). Using standard techniques the expression plasmid is transfected into G-402 cells and these cells are then selected for expressing the given resistance markers. Individual cell-clones are then selected and assessed for displaying the desired enzymatic activity using 11-Deoxycorticosterone (Cyp11B2) or 11-Deoxycortisol (Cyp11B1) as a substrate.
(§3) For assaying enzymatic activity, cells were plated onto 96 well plates and incubated for 16 h. An aliquot of the supernatant is then transferred and analyzed for the concentration of the expected product (Aldosterone for CYP11B2; Cortisol for CYP11B1). The concentrations of these steroids can be determined using HTRF assays from CisBio analyzing either Aldosterone or Cortisol.
(§4) Inhibition of the release of produced steroids can be used as a measure of the respective enzyme inhibition by test compounds added during the cellular enzyme assay. The dose dependent inhibition of enzymatic activity by a compound is calculated by means of plotting added inhibitor concentrations x-axes) vs. measured steroid/product level (y-axes). The inhibition is then calculated by fitting the following 4-parameter sigmoidal function (Morgan-Mercer-Flodin (MMF) model) to the raw data points using the least squares method:
(§5) [formula] wherein, A is the maximum y value, B is the EC50 factor determined using XLFit, C is the minimum y value and D is the slope value.
(§6) EC50 values for compounds claimed herein were tested with the G402-based assay system described. Cyp11B2 enzyme activity was tested in presence of 1 μM Deoxycorticosterone and variable amounts of inhibitors; Cyp11B1 enzyme activity was tested in presence of 1 μM Deoxycortisol and variable amounts of inhibitors.
For orientation: TR-FRET usually uses a lanthanide donor and a delayed reading to cut background.

In another assay the target is human CYP11B1 (Homo sapiens (Human), UniProt P15538). Nature of the assay: G-402 cellular enzyme assay, human CYP11B1 (cortisol release, HTRF). The note with it: G-402 cells expressing human CYP11B1; 1 μM Deoxycortisol. Format: cell-based.
human CYP11B1, sequence (P15538 25-503): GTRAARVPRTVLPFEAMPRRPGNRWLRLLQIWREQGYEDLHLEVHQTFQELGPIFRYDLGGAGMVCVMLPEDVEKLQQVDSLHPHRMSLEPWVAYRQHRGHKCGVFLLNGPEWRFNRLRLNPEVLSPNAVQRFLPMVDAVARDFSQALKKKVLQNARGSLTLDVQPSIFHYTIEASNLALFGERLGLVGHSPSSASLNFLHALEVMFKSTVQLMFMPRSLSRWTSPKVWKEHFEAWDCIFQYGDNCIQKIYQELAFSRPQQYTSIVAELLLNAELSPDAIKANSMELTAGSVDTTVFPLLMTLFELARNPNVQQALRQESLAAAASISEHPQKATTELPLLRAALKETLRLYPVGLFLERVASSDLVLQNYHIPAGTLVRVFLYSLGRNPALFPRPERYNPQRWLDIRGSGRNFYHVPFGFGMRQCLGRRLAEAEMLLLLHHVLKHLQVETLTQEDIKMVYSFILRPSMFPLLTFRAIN
Text: as §1, §2, §3, §4, §5, §6

human CYP11B2, sequence (P19099 25-503): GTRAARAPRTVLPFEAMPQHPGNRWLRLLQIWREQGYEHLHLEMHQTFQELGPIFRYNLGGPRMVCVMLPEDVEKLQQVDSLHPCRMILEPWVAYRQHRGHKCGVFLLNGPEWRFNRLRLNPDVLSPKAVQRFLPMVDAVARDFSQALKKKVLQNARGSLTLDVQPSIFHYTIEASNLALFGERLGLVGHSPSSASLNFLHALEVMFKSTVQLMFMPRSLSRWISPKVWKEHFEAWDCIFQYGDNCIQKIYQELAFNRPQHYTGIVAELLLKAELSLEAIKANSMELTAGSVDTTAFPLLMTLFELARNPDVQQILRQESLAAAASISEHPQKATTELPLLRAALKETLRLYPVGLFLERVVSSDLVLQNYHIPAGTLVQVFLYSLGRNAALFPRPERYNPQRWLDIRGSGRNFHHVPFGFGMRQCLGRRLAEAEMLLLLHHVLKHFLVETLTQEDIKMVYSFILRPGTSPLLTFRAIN

On to `CCC(=O)NC1CCc2c(-c3cc4c(cc3F)N(C)C(=O)CC4)cncc21` (single isomer, unassigned; (+)) [Example 24, (+)-(R or S)—N-(4-(7-Fluoro-1-methyl-2-oxo-1,2,3,4-tetrahydroquinolin-6-yl)-6,7-dihydro-5H-cyclopenta[c]pyridin-7-yl)propionamide], for which the EC50 is 0.0038 µM at human CYP11B2 and 0.466 µM on human CYP11B1.
In the case of `CCS(=O)(=O)NC1CCc2c(-c3cc4c(cc3F)N(C)C(=O)CC4)cncc21` (single isomer, unassigned; (+)) [Example 27, (+)-(R or S)—N-(4-(7-Fluoro-1-methyl-2-oxo-1,2,3,4-tetrahydroquinolin-6-yl)-6,7-dihydro-5H-cyclopenta[c]pyridin-7-yl)ethanesulfonamide], the values for the EC50 at human CYP11B2 and on human CYP11B1 were 0.0112 µM and 1.89 µM, respectively.
In the case of `CCC(=O)NC1CCCc2c(-c3cc4c(cc3F)N(C)C(=O)CC4)cncc21` (single isomer, unassigned; (+)) [Example 30, (+)-(R or S)—N-[4-(7-fluoro-1-methyl-2-oxo-1,2,3,4-tetrahydro-quinolin-6-yl)-5,6,7,8-tetrahydro-isoquinolin-8-yl]-propionamide], the EC50 at human CYP11B2 is 0.03 µM; on human CYP11B1, 3.68 µM.
With `CCS(=O)(=O)NC1CCCc2c(-c3cc4c(cc3F)N(C)C(=O)CC4)cncc21` (single isomer, unassigned; (+)) [Example 32, (+)-(R or S)-Ethanesulfonic acid [4-(7-fluoro-1-methyl-2-oxo-1,2,3,4-tetrahydro-quinolin-6-yl)-5,6,7,8-tetrahydro-isoquinolin-8-yl]-amide], the EC50 on human CYP11B2 stood at 0.0782 µM; on human CYP11B1, 4.24 µM.
On to `CCS(=O)(=O)NC1CCCc2c(-c3cc(Cl)c4c(c3)CCC(=O)N4C)cncc21` (single isomer, unassigned; (+)) [Example 38, (+)-Ethanesulfonic acid [(R or S)-4-(8-chloro-1-methyl-2-oxo-1,2,3,4-tetrahydro-quinolin-6-yl)-5,6,7,8-tetrahydro-isoquinolin-8-yl]-amide], for which the EC50 was determined as 0.422 µM at human CYP11B2 and 15.9 µM on human CYP11B1.
Consider `CCC(=O)NC1CCCc2c(-c3cc(Cl)c4c(c3)CCC(=O)N4C)cncc21` (single isomer, unassigned; (+)) [Example 41, (+)-N—[(R or S)-4-(8-Chloro-1-methyl-2-oxo-1,2,3,4-tetrahydro-quinolin-6-yl)-5,6,7,8-tetrahydro-isoquinolin-8-yl]-propionamide], for which the figures for the half-maximal effective concentration (EC50) on human CYP11B2 and on human CYP11B1 were 0.0166 µM and 3.53 µM, respectively.
Taken in the same sequence, the figures for `CCC(=O)NC1CCc2c(-c3cc(Cl)c4c(c3)CCC(=O)N4C)cncc21` (single isomer, unassigned; (+)) [Example 60, (+)-(R or S)—N-(4-(8-Chloro-1-methyl-2-oxo-1,2,3,4-tetrahydroquinolin-6-yl)-6,7-dihydro-5H-cyclopenta[c]pyridin-7-yl)propionamide] were 0.0088 µM and 1.17 µM.
As for `CCC(=O)NC1CCCc2c(-c3ccc4c(c3)CCC(=O)N4C)cncc21` (single isomer, unassigned; (-)) [Example 2, (−)-(R or S)—N-(4-(1-Methyl-2-oxo-1,2,3,4-tetrahydroquinolin-6-yl)-5,6,7,8-tetrahydroisoquinolin-8-yl)propionamide], the EC50 at human CYP11B2 was 1.02 µM; at human CYP11B1, 12.1 µM.
As for `CCS(=O)(=O)NC1CCCc2c(-c3ccc4c(c3)CCC(=O)N4C)cncc21` (single isomer, unassigned; (-)) [Example 5, (−)-(R or S)—N-(4-(1-Methyl-2-oxo-1,2,3,4-tetrahydroquinolin-6-yl)-5,6,7,8-tetrahydroisoquinolin-8-yl)ethanesulfonamide], the EC50 was determined as 1.29 µM at human CYP11B2 and 11.8 µM on human CYP11B1.
For `C[C@@H](O)C(=O)NC1CCCc2c(-c3ccc4c(c3)CCC(=O)N4C)cncc21` (single isomer, unassigned; (-)) [Example 19, (−)-(2R)-2-Hydroxy-N-((4S or 4R)-4-(1-methyl-2-oxo-1,2,3,4-tetrahydroquinolin-6-yl)-5,6,7,8-tetrahydroisoquinolin-8-yl)propanamide] the same measures were 0.493 µM and 13.2 µM.
Taken in the same sequence, the figures for `C[C@H](O)C(=O)NC1CCCc2c(-c3ccc4c(c3)CCC(=O)N4C)cncc21` (single isomer, unassigned; (-)) [Example 20, (−)-(2S)-2-hydroxy-N-((4S or 4R)-4-(1-methyl-2-oxo-1,2,3,4-tetrahydroquinolin-6-yl)-5,6,7,8-tetrahydroisoquinolin-8-yl)propanamide] were 0.823 µM and 25.5 µM.
Consider `CCC(=O)NC1CCCc2c(-c3cc4c(cc3F)N(C)C(=O)CC4)cncc21` (single isomer, unassigned; (-)) [Example 29, (−)-(S or R)—N-[4-(7-Fluoro-1-methyl-2-oxo-1,2,3,4-tetrahydro-quinolin-6-yl)-5,6,7,8-tetrahydro-isoquinolin-8-yl]-propionamide], for which the figures for the concentration for a half-maximal effect (EC50) at human CYP11B2 and at human CYP11B1 were 1.79 µM and 42.6 µM, respectively.
As for `CCS(=O)(=O)NC1CCCc2c(-c3cc4c(cc3F)N(C)C(=O)CC4)cncc21` (single isomer, unassigned; (-)) [Example 31, (−)-(S or R)-Ethanesulfonic acid [4-(7-fluoro-1-methyl-2-oxo-1,2,3,4-tetrahydro-quinolin-6-yl)-5,6,7,8-tetrahydro-isoquinolin-8-yl]-amide], the EC50 on human CYP11B2 amounted to 1.04 µM; at human CYP11B1, 14.5 µM.
Taken in the same sequence, the figures for `CCC(=O)N[C@@H]1CCCc2c(-c3ccc4c(c3)CCC(=O)N4C)cncc21` [Example 3-1, (+)-(R)—N-(4-(1-Methyl-2-oxo-1,2,3,4-tetrahydroquinolin-6-yl)-5,6,7,8-tetrahydroisoquinolin-8-yl)propionamide] were 0.014 µM and 0.98 µM.
As to `CN1C(=O)CCc2cc(-c3cncc4c3CCCN4CCNC(=O)OC(C)(C)C)ccc21` [Example 11, {2-[5-(1-Methyl-2-oxo-1,2,3,4-tetrahydro-quinolin-6-yl)-3,4-dihydro-2H-[1,7]naphthyridin-1-yl]-ethyl}-carbamic acid tert-butyl ester], the EC50 worked out at 0.023 µM on human CYP11B2 and 0.42 µM on human CYP11B1.
For `CN1C(=O)CCc2cc(-c3cncc4c3CCCN4CCN)ccc21` [Example 12, 6-[1-(2-Amino-ethyl)-1,2,3,4-tetrahydro-[1,7]naphthyridin-5-yl]-1-methyl-3,4-dihydro-1H-quinolin-2-one hydrochloride], the EC50 on human CYP11B2 was 0.004 µM; on human CYP11B1, 1.88 µM.
For `CCC(=O)NCCN1CCCc2c(-c3ccc4c(c3)CCC(=O)N4C)cncc21` [Example 13, N-{2-[5-(1-Methyl-2-oxo-1,2,3,4-tetrahydro-quinolin-6-yl)-3,4-dihydro-2H-[1,7]naphthyridin-1-yl]-ethyl}-propionamide], the EC50 was 0.014 µM at human CYP11B2 and 1.81 µM at human CYP11B1.
On to `CCS(=O)(=O)NCCN1CCCc2c(-c3ccc4c(c3)CCC(=O)N4C)cncc21` [Example 14, N-(2-(5-(1-Methyl-2-oxo-1,2,3,4-tetrahydroquinolin-6-yl)-3,4-dihydro-1,7-naphthyridin-1(2H)-yl)ethyl)ethanesulfonamide], for which the EC50 at human CYP11B2 was found to be 0.011 µM; on human CYP11B1, 0.21 µM.
For `CC(O)C(=O)NC1CCCc2c(-c3ccc4c(c3)CCC(=O)N4C)cncc21` [Example 15, (2R,S)-2-Hydroxy-N-[(4R,S)-4-(1-methyl-2-oxo-1,2,3,4-tetrahydroquinolin-6-yl)-5,6,7,8-tetrahydroisoquinolin-8-yl]propanamide], the 50% effective concentration (EC50) at human CYP11B2 came out at 0.0773 µM; at human CYP11B1, 0.574 µM.
For `C[C@@H](O)C(=O)NC1CCCc2c(-c3ccc4c(c3)CCC(=O)N4C)cncc21` (stereo partly drawn) [Example 16, (2R)-2-Hydroxy-N-((4R,S)-4-(1-methyl-2-oxo-1,2,3,4-tetrahydroquinolin-6-yl)-5,6,7,8-tetrahydroisoquinolin-8-yl)propanamide] the same measures were 0.0308 µM and 1.05 µM.
Regarding `C[C@H](O)C(=O)NC1CCCc2c(-c3ccc4c(c3)CCC(=O)N4C)cncc21` (stereo partly drawn) [Example 17, (2S)-2-Hydroxy-N-((4R,S)-4-(1-methyl-2-oxo-1,2,3,4-tetrahydroquinolin-6-yl)-5,6,7,8-tetrahydroisoquinolin-8-yl)propanamide], the EC50 at human CYP11B2 stood at 0.0316 µM; on human CYP11B1, 0.885 µM.
Regarding `CN1C(=O)CCc2cc(-c3cncc4c3CCC[C@H]4N)ccc21` [Example 61, (R)-6-(8-Amino-5,6,7,8-tetrahydroisoquinolin-4-yl)-1-methyl-3,4-dihydroquinolin-2(1H)-one], the EC50 amounted to 0.0056 µM at human CYP11B2 and 0.45 µM at human CYP11B1.
